Experimental findings from patent US7435837B2, “Dihydrobenzofuranyl alkanamine derivatives and methods for using same” (Wyeth, priority 2003, dated 2008) are described below.

Test [1] deals with T1, human 5-hydroxytryptamine-2C (h5-HT2C) receptor (Homo sapiens, UniProt P28335).
T1 construct: expressed in transfected cells; host or cells: CHO (Chinese Hamster Ovary) cells; membranes
T1 sequence (P28335 33-458): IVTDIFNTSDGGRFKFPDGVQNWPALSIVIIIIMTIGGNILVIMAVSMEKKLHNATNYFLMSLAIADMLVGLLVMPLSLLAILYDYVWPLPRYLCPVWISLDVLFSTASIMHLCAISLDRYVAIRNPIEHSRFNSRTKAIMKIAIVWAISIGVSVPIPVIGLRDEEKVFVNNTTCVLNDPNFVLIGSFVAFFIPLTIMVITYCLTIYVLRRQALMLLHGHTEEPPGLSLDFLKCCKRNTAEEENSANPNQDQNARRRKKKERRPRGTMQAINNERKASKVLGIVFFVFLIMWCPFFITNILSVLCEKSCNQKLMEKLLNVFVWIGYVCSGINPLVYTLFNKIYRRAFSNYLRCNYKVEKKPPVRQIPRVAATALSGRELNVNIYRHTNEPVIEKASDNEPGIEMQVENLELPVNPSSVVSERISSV
As to the kind of experiment: [125I]DOI binding to membranes of CHO cells expressing the human 5-HT2C receptor. The conditions noted are these: [125I]DOI radioligand, CHO cell membranes, room temperature 60 min; read-out: 5-HT2C Affinity Ki.

Test [2] addresses T2, human 5-HT2C receptor (Homo sapiens, UniProt P28335).
T2 sequence (P28335 33-458): T1 sequence (P28335 33-458)
In words: 5-HT2C receptor-stimulated calcium mobilization (FLIPR) in CHO cells.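 As to all read-outs here: Fluo-3-AM fluorescence read on FLIPR every 1 s, agonist added after 10 baseline reads, response taken as peak minus lowest raw fluorescence count.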 The conditions noted are these: for Emax: CHO, read-out: 5-HT2C Function Emax (%); for Emax / 5-HT2C Function Emax (%): percentage of the response observed with a maximally effective concentration of 5-HT; for EC50: calcium mobilization, CHO cells stably expressing human 5-HT2C, read-out: 5-HT2C Function EC50. It is filed as cell-based.

As to `NCC1Cc2cc(Cl)cc(-c3ccc(F)c(Cl)c3)c2O1` (racemic) [Example 259, (±)-{[5-chloro-7-(3-chloro-4-fluorophenyl)-2,3-dihydro-1-benzofuran-2-yl]methyl}amine], the Ki in test [1] was 69 nM.
Same read-out and setting: in the case of `NCC1Cc2c(cccc2-c2ccccc2C(F)(F)F)O1` (single isomer, unassigned; (+)) [Example 124, (+)-1-{4-[2-(trifluoromethyl)phenyl]-2,3-dihydro-1-benzofuran-2-yl}methanamine] it was 53 nM; in that of `CNCC1Cc2cc(-c3ccccc3C)cc(F)c2O1` (racemic) [Example 528, (±)-{[7-fluoro-5-(2-methylphenyl)-2,3-dihydro-1-benzofuran-2-yl]methyl}methylamine], 1090 nM; in that of `COc1ccc(-c2cccc3c2OC(CN)C3)c(OC)c1` (single isomer, unassigned; (+)) [Example 145, (+)-1-[7-(2,4-dimethoxyphenyl)-2,3-dihydro-1-benzofuran-2-yl]methanamine], 91 nM.
Same read-out and setting: in the case of `CNCC1Cc2cc(-c3ccccc3)cc(-c3cccc(OC)c3)c2O1` (racemic) [Example 515, (±)-{[7-(3-methoxyphenyl)-5-phenyl-2,3-dihydro-1-benzofuran-2-yl]methyl}methylamine] it was 965 nM; in that of `NCC1Cc2cccc(Nc3ccccc3F)c2O1` (racemic) [Example 194, (±)-N-[2-(aminomethyl)-2,3-dihydro-1-benzofuran-7-yl]-N-(2-fluorophenyl)amine], 127 nM.
Still for that read-out and setting: in the case of `Cc1cccc(-c2cc(-c3ccccc3)cc3c2OC(CN)C3)c1` (racemic) [Example 352, (±)-{[7-(3-methylphenyl)-5-phenyl-2,3-dihydro-1-benzofuran-2-yl]methyl}amine] it was 876 nM.
On to `CNCC1Cc2cc(-c3ccc(C(F)(F)F)cc3)cc(F)c2O1` (racemic) [Example 541, (±)-{7-fluoro-5-[4-(trifluoromethyl)phenyl]-2,3-dihydro-1-benzofuran-2-yl}methyl)methylamine], for which the Ki in test [1] was 316 nM.
On the same count and under the same terms, in the case of `NCC1Cc2cccc(Nc3cccc(OC(F)(F)F)c3)c2O1` (racemic) [Example 187, (±)-N-[2-(aminomethyl)-2,3-dihydro-1-benzofuran-7-yl]-N-(3-trifluoromethoxy)phenyl]amine] it was 247 nM.
Still for that read-out and setting: the same measure for `CC1(CN)Cc2cc(Cl)cc(-c3ccsc3)c2O1` (racemic) [Example 113, (±)-(5-chloro-2-methyl-7-thien-3-yl-2,3-dihydro-1-benzofuran-2-yl)methylamine]: 130 nM.
The same measure, in the same setting: in the case of `NCC1Cc2cccc(Nc3ccc(Cl)cc3)c2O1` (racemic) [Example 175, (±)-N-[2-(aminomethyl)-2,3-dihydro-1-benzofuran-7-yl]-N-(4-chlorophenyl)amine] it was 384 nM.
With `NCC1Cc2c(F)ccc(-c3ccccc3)c2O1` (racemic) [Example 98, (±)-1-(4-fluoro-7-phenyl-2,3-dihydro-1-benzofuran-2-yl)methanamine], the Ki in test [1] turned out to be 60 nM.
The same measure, in the same setting: in the case of `CNCC1Cc2cc(-c3ccccc3)cc(-c3ccccc3OC)c2O1` (racemic) [Example 514, (±)-{[7-(2-methoxyphenyl)-5-phenyl-2,3-dihydro-1-benzofuran-2-yl]methyl}methylamine] it was 242 nM.
On to `NCC1Cc2cccc(-c3ccccc3)c2O1` (racemic) [Example 36, (±)-1-(7-phenyl-2,3-dihydro-1-benzofuran-2-yl)methanamine], for which the Ki in test [1] turned out to be 15 nM.
Regarding `COc1cc2c(c(-c3ccccc3C)c1)OC(CN)C2` (racemic) [Example 358, (±)-{[7-(2-methylphenyl)-5-methoxy-2,3-dihydro-1-benzofuran-2-yl]methyl}amine], in test [1], the Ki was 7 nM.
Same read-out and setting: in the case of `CNCC1Cc2cc(Cl)cc(-c3ccsc3)c2O1` (single isomer, unassigned; (-)) [Example 94, (−)-N-[(5-chloro-7-thien-3-yl-2,3-dihydro-1-benzofuran-2-yl)methyl]-N-methylamine] it was 176 nM.
On to `NCC1Cc2cc(C(F)(F)F)cc(-c3ccc(C(F)(F)F)cc3)c2O1` (racemic) [Example 327, (±)-{[5-(trifluoromethyl)-7-(4-(trifluoromethyl)phenyl)-2,3-dihydro-1-benzofuran-2-yl]methyl}amine], for which the inhibition constant (Ki) in test [1] is 255 nM.
Same read-out and setting: in the case of `NCC1Cc2cc(-c3ccccc3Cl)cc(F)c2O1` (racemic) [Example 376, (±)-{[7-fluoro-5-(2-chlorophenyl)-2,3-dihydro-1-benzofuran-2-yl]methyl}amine] it was 88 nM; in that of `NCC1Cc2cccc(-c3cc4ccccc4o3)c2O1` (racemic) [Example 40, (±)-1-(2′,3′-dihydro-2,7′-bi-1-benzofuran-2′-yl)methanamine], 122 nM; in that of `NCC1Cc2cc(C(F)(F)F)cc(-c3cccc(Cl)c3Cl)c2O1` (racemic) [Example 330, (±)-{[7-(2,3-dichlorophenyl)-5-(trifluoromethyl)-2,3-dihydro-1-benzofuran-2-yl]methyl}amine], 88 nM.
Same read-out and setting: the same measure for `NCC1Cc2cccc(-c3cc(Cl)cc(Cl)c3)c2O1` (racemic) [Example 35, (±)-1-[7-(3,5-dichlorophenyl)-2,3-dihydro-1-benzofuran-2-yl]methanamine]: 141 nM.
With `COc1cccc(-c2cc(C)cc3c2OC(CN)C3)c1OC` (single isomer, unassigned; (-)) [Example 295, (−)-{[7-(2,3-dimethoxyphenyl)-5-methyl-2,3-dihydro-1-benzofuran-2-yl]methyl}amine], in test [2], the Emax is 90% and the EC50 worked out at 8 nM.
Consider `CNCC1Cc2cc(Cl)cc(-c3c(C)cccc3C)c2O1` (racemic) [Example 461, (±)-{[5-chloro-7-(2,6-dimethylphenyl)-2,3-dihydro-1-benzofuran-2-yl]methyl}methylamine], for which, in test [2], the Emax was determined as 80% and the EC50 came out at 34 nM.
For `CNCC1Cc2cccc(-c3ccc(Cl)cc3Cl)c2O1` (racemic) [Example 425, (±)-[(N-methyl-1-[7-(2,4-dichlorophenyl)-2,3-dihydro-1-benzofuran-2-yl]methanamine], in that order: 100% and 9 nM.
On the same counts, the results for `CNCC1Cc2cc(Cl)cc(-c3cccc(C)c3C)c2O1` (racemic) [Example 465, (±)-{[5-chloro-7-(2,3-dimethylphenyl)-2,3-dihydro-1-benzofuran-2-yl]methyl}methylamine] are 60% and 496 nM.
For `CNCC1Cc2cccc(-c3cc(Cl)ccc3OC)c2O1` (racemic) [Example 430, (±)-[(N-methyl-1-[7-(5-chloro-2-methoxyphenyl)-2,3-dihydro-1-benzofuran-2-yl]methanamine], in that order: 80% and 448 nM.
As to `CNCC1Cc2cc(C)cc(-c3cccc(OC)c3OC)c2O1` (single isomer, unassigned; (-)) [Example 567, (−)-{[7-(2,3-dimethoxyphenyl)-5-methyl-2,3-dihydro-1-benzofuran-2-yl]methyl}methylamine], in test [2], the 50% effective concentration (EC50) worked out at 9 nM and the “5-HT2C Function Emax (%)” value is reported as 60%.
Regarding `NCC1Cc2cc(Cl)cc(-c3cccc(F)c3F)c2O1` (racemic) [Example 246, (±)-{[5-chloro-7-(2,3-difluorophenyl)-2,3-dihydro-1-benzofuran-2-yl]methyl}amine], the “5-HT2C Function Emax (%)” value in test [2] stood at 90%.
For the molecule `Fc1cc2c(c(-c3c(Cl)cccc3Cl)c1)OC(CNC1CC1)C2` (racemic) [Example 231, (±)-N-{[7-(2,6-dichlorophenyl)-5-fluoro-2,3-dihydro-1-benzofuran-2-yl]methyl}cyclopropanamine], in test [2], the Emax worked out at 80% and the concentration giving a half-maximal response (EC50) was 0.4 nM.
For `CCNCC1Cc2cc(F)cc(-c3c(Cl)cccc3Cl)c2O1` (racemic) [Example 234, (±)-N-{[7-(2,6-dichlorophenyl)-5-fluoro-2,3-dihydro-1-benzofuran-2-yl]methyl}ethanamine], in that order: 90% and 11 nM.
On the same counts, the results for `Cc1cccc(C)c1-c1cc(Cl)cc2c1OC(CNCC1CC1)C2` (racemic) [Example 268, (±)-N-{[5-chloro-7-(2,6-dimethylphenyl)-2,3-dihydro-1-benzofuran-2-yl]methyl}(cyclopropylmethyl)amine] are 50% and 961 nM.
For `CNCC1Cc2cccc(-c3c(C)cccc3C)c2O1` (racemic) [Example 432, (±)-[(N-methyl-1-[7-(2,6-dimethylphenyl)-2,3-dihydro-1-benzofuran-2-yl]methanamine], in test [2], the maximum response (Emax) came out at 80% and the EC50 was found to be 72 nM.
For `CNCC1Cc2cc(Cl)cc(-c3cc(Cl)ccc3Cl)c2O1` (racemic) [Example 471, (±)-{[5-chloro-7-(2,5-dichlorophenyl)-2,3-dihydro-1-benzofuran-2-yl]methyl}methylamine], in that order: 90% and 14 nM.
For `CNCC1Cc2cc(C)cc(-c3cccc(OC)c3OC)c2O1` (single isomer, unassigned; (+)) [Example 566, (+)-{[7-(2,3-dimethoxyphenyl)-5-methyl-2,3-dihydro-1-benzofuran-2-yl]methyl}methylamine], in that order: 70% and 3 nM.

As usually defined, the Ki is the equilibrium dissociation constant of an inhibitor or competing ligand from its target. What is called Emax is the greatest response seen or fitted, relative to the assay's reference. The EC50 is the concentration giving half of the maximal effect.
